Laboratory results reported in patent US20160058775A1, “COMPOSITION AND FORMULATION OF ANTIMICROBIAL AGENTS, PROCESSES THEREOF AND METHODS FOR TREATING MICROBIAL INFECTIONS” (VYOME BIOSCIENCES PVT. LTD., priority 2013, published 2016).
Read-outs that look alike come from different tables or passages of the source.

Tested on: M. furfur
Excerpt: The time-kill assays were used to evaluate efficacy of antimicrobial agents, either singly or in combination, and the results can help in establishing the dose and/or time of application of the active. The time-kill assays were used to study both concentration-dependent and time-dependent antimicrobial action.
M. furfur cells were suspended in Sabouraud Dextrose Broth (SDB) at inoculum concentration of 7×10^7 cells/ml. Cells were taken from a freshly growing (3-7 days old) plate and cell suspension was vortexed to remove the cell clumps as much as possible. Sterile media were supplemented with chloramphenicol (0.25 mg/ml), cycloheximide (0.04 mg/ml) and olive oil (2%). The media were then supplemented with appropriate concentrations (two-fold serial dilutions using SDB) of unmodified zinc pyrithione API (10 μg/ml and 50 μg/ml) with different concentrations of Capmul 908-P (0%, 1%, 3%, 5% & 9%). The cultures were incubated on a tube rotator at 34° C. in CO2 incubator.
To measure the colony forming units (CFU), at different time points, aliquots (50 μl) of Malassezia cultures were serially diluted with SDBT medium (SDB containing 0.1% Triton X-100) and plated on SDA plates. The plates are incubated at 34° C. in CO2 incubator for 3 days. The viable colonies were counted and converted to CFU/ml.

zinc pyrithione [ZPT]
Log CFU Count of M. furfur (ZPT 10 μg/ml, Capmul 908-P 30 μg/ml, 6 hrs): 6.50 | Log CFU Count of M. furfur (ZPT 10 μg/ml, Capmul 908-P 30 μg/ml, 24 hrs): 5.94 | Log CFU Count of M. furfur (ZPT 10 μg/ml, Capmul 908-P 30 μg/ml, 48 hrs): 5.06 | Log CFU Count of M. furfur (ZPT 10 μg/ml, Capmul 908-P 50 μg/ml, 6 hrs): 6.37 | Log CFU Count of M. furfur (ZPT 10 μg/ml, Capmul 908-P 50 μg/ml, 24 hrs): 5.57 | Log CFU Count of M. furfur (ZPT 10 μg/ml, Capmul 908-P 50 μg/ml, 48 hrs): 4.80 | Log CFU Count of M. furfur (ZPT 10 μg/ml, Capmul 908-P 90 μg/ml, 6 hrs): 6.33 | Log CFU Count of M. furfur (ZPT 10 μg/ml, Capmul 908-P 90 μg/ml, 24 hrs): 5.55 | Log CFU Count of M. furfur (ZPT 10 μg/ml, Capmul 908-P 90 μg/ml, 48 hrs): 4.77 | Log CFU Count of M. furfur (ZPT 10 μg/ml, Capmul 908-P nil, 6 hrs): 6.56 | Log CFU Count of M. furfur (ZPT 10 μg/ml, Capmul 908-P nil, 24 hrs): 6.13 | Log CFU Count of M. furfur (ZPT 10 μg/ml, Capmul 908-P nil, 48 hrs): 5.27 | Log CFU Count of M. furfur (ZPT 50 μg/ml, Capmul 908-P 30 μg/ml, 6 h): 6.06 | Log CFU Count of M. furfur (ZPT 50 μg/ml, Capmul 908-P 30 μg/ml, 24 h): 4.69 | Log CFU Count of M. furfur (ZPT 50 μg/ml, Capmul 908-P 30 μg/ml, 48 h): 3.25 | Log CFU Count of M. furfur (ZPT 50 μg/ml, Capmul 908-P 50 μg/ml, 6 h): 5.94 | Log CFU Count of M. furfur (ZPT 50 μg/ml, Capmul 908-P 50 μg/ml, 24 h): 4.62 | Log CFU Count of M. furfur (ZPT 50 μg/ml, Capmul 908-P 50 μg/ml, 48 h): 3.04 | Log CFU Count of M. furfur (ZPT 50 μg/ml, Capmul 908-P 90 μg/ml, 6 h): 5.52 | Log CFU Count of M. furfur (ZPT 50 μg/ml, Capmul 908-P 90 μg/ml, 24 h): 3.63 | Log CFU Count of M. furfur (ZPT 50 μg/ml, Capmul 908-P 90 μg/ml, 48 h): 2.08 | Log CFU Count of M. furfur (ZPT 50 μg/ml, Capmul 908-P nil, 6 h): 6.43 | Log CFU Count of M. furfur (ZPT 50 μg/ml, Capmul 908-P nil, 24 h): 5.39 | Log CFU Count of M. furfur (ZPT 50 μg/ml, Capmul 908-P nil, 48 h): 3.92 | Anti-microbial activity towards M. furfur with increasing concentration of propylene glycol monocaprylate (Capmul 908-P) (time-kill, Tables 12 and 13): gets potentiated
